These are literature values, as cited in patent publication US20050008712A1, “Compositions incorporating high-caffeine green tea extract and related methods for promoting healthy body weight” (priority 2003, published 2005).

The conditions of this data set: rats.

`O=C(O[C@@H]1Cc2c(O)cc(O)cc2O[C@@H]1c1cc(O)c(O)c(O)c1)c1cc(O)c(O)c(O)c1` [EGCG, (−)-epigallo-catechin-3-gallate]: the “loss of body weight” value (after daily injections for a week) is on record as 20%. For the setting “injected”, the blood cholesterol entry is listed as “significantly reduces”, the blood triglycerides entry is “significantly reduces”, the body weight entry was “significantly reduces” and the food intake entry is given as “significantly reduces”.
